According to patent US4410548A, “Propanolamine derivatives” (Reckitt & Colman Products Limited, priority 1980, dated 1983):
Where a name gives a salt, the structure may show the parent alone. Read-outs that look alike come from different tables or passages of the source.

How the values were obtained:
β-adrenoreceptor = molecular target: T1, β-adrenoreceptor (Cavia porcellus, UniProt H0W3H1); assay: antagonism of positive chronotropic responses to (-)-isoprenaline in isolated guinea-pig right atria; format: cell-based; details: for times (±)-propranolol was more potent as an antagonist than the compound / times less active than (±)-propranolol: β-adrenoreceptor antagonism in vitro
T1 construct: isolated guinea-pig right atria; from tissue; host or cells: isolated guinea-pig right atria
T1 sequence (H0W3H1 1-470): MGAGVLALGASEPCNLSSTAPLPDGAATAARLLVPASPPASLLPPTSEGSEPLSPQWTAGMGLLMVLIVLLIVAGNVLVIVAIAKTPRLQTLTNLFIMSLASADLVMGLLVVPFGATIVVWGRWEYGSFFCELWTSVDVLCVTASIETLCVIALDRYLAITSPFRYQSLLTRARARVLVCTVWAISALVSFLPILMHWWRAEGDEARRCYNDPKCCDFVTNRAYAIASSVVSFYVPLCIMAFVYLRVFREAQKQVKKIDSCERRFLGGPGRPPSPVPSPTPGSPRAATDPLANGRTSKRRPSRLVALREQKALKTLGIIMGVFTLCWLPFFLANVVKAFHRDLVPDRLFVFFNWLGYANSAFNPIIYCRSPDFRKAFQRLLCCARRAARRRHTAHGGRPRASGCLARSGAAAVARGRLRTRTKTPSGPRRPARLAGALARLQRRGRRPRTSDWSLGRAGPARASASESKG
Description: Tolamolol is the approved name for 1-[2-(4-carbamoylphenoxy)ethylamino]-3-(2-methylphenoxy)propan-2-ol.
The values in this table are the mean of 4-8

DOCA hypertensive rats [1] = assay: antihypertensive activity (mean arterial blood pressure) after oral administration in DOCA hypertensive rats; format: in vivo, rat; details: for MABP, maximum percent changes: Table 2 (in brackets); for MABP, summation of percent changes: Table 2; for maximal percent changes in MABP: DOCA rats
Procedure: (b) DOCA = Desoxycorticosterone acetate.
(c) MABP = Mean arterial blood pressure. Negative values represent falls
in blood pressure and conversely positive values increases in blood
pressure. The values of maximum percent changes are mean values taken fro
groups of 5-7 DOCA hypertensive rats.
(d) Values in the final column represent duration of action of the
relative increases and decreases in blood pressure with the respective
treatments. Group mean percent changes are added together for the times o
1, 2, 3 and 5 hours after oral dosage. […]
Values in the final column are summation of percent changes with, in
brackets the maximum percent changes.

DOCA hypertensive rats [2] = assay: toxicity / deaths seen in the antihypertensive test in DOCA rats; format: in vivo, rat; details: oral dose 100 mg/kg
Description: (d) With Example B in the antihypertensive test at an oral dose of 100

DOCA hypertensive rats [3] = assay: heart rate in DOCA hypertensive rats after oral administration; details: both doses (5 and 50 mg/kg)
[4] = Table 1, isolated guinea-pig atria, mean of 4-8 experiments, read-out: pA2 value against chronotropic responses of isoprenaline (converted)
[5] = oral dose 50 mg/kg, mean of groups of 5-7, negative = fall
[6] = oral dose 50 mg/kg, MABP, sum of 1, 2, 3 and 5 hours after dosage
[7] = oral dose 100 mg/kg, mean of groups of 5-7, negative = fall
[8] = oral dose 100 mg/kg, MABP, sum of 1, 2, 3 and 5 hours after dosage
[9] = Table 2, isolated guinea-pig atria vs isoprenaline, read-out: β-Antag. pA2 (converted)

| Kb (β-adrenoreceptor; [4]) | SMILES | MABP, maximum percent changes (DOCA hypertensive rats [1]; oral dose 100 mg/kg) | MABP, summation of percent changes (DOCA hypertensive rats [1]; oral dose 100 mg/kg) | maximal percent changes in MABP (DOCA hypertensive rats [1]; [5]) | Summation of percent changes (DOCA hypertensive rats [1]; [6]) | maximal percent changes in MABP (DOCA hypertensive rats [1]; [7]) | Summation of percent changes (DOCA hypertensive rats [1]; [8]) | other results |
| --- | --- | --- | --- | --- | --- | --- | --- | --- |
| 380 nM | COc1cc([S+](C)[O-])c(C)cc1OCCNCC(O)COc1ccccc1C.O=C(O)C(=O)O (stereo not shown) [Example 1, 1-[2-(2-Methoxy-5-methyl-4-methylsulphinylphenoxy)ethylamino]-3-(2-methylphenoxy)propan-2-ol oxalate salt] | -47% | -170% | -37% | -137% | -47% | -170% | times (±)-propranolol was more potent as an antagonist than the compound (β-adrenoreceptor): ~20 times |
| 17 nM | Cc1ccccc1OCC(O)CNCCOc1ccc(C(N)=O)cc1 (racemic) [(±)-Tolamolol, 1-[2-(4-carbamoylphenoxy)ethylamino]-3-(2-methylphenoxy)propan-2-ol] | – | – | -20% | -47% | -30% | -88% | relative potency as β-adrenoreceptor antagonist (β-adrenoreceptor; in vitro, among the compounds of Table 1): most potent β-adrenoreceptor antagonists tested in vitro; duration of blood pressure effect versus bradycardia (DOCA hypertensive rats [1]; oral, (±)-tolamolol): of a shorter duration than the bradycardia; effect on blood pressure (DOCA hypertensive rats [1]; oral, (±)-tolamolol): falls in blood pressure which were relatively transient |
| – | COc1ccc(OCCNCC(O)COc2ccccc2C)c([S+](C)[O-])c1 (stereo not shown) [Example B] | – | – | – | – | – | – | toxicity (MABP column) (DOCA hypertensive rats [2]; Table 2): toxic; deaths of test rats (DOCA hypertensive rats [2]; antihypertensive test): 5 of the 6 test rats died |
| – | COc1cc([S+](C)[O-])c(C)cc1OCCNCC(O)COc1ccc(C)cc1 (stereo not shown) [D] | -23% | -82% | – | – | – | – | Kb (β-adrenoreceptor; [9]): 1170 nM |
| 191 nM | COc1cc(S(C)(=O)=O)c(C)cc1OCCNCC(O)COc1ccccc1.O=C(O)C(=O)O (stereo not shown) [Example 6, 1-[2-(2-Methoxy-5-methyl-4-methylsulphonylphenoxy)ethylamino]-3-phenoxypropan-2-ol oxalate salt] | – | – | – | – | -35% | -127% | times (±)-propranolol was more potent as an antagonist than the compound (β-adrenoreceptor): approximately 10 times |
| – | COc1cc(C)c([S+](C)[O-])cc1OCCNCC(O)COc1ccccc1C (stereo not shown) [A] | -37% | -127% | – | – | – | – | Kb (β-adrenoreceptor; [9]): 3160 nM |
| – | COc1cc([S+](C)[O-])c(C)cc1OCCNCC(O)COc1cccc(C)c1 (stereo not shown) [C] | -8% | -23% | – | – | – | – | pD'2 (β-adrenoreceptor; Table 2, in pA2 column, negative log molar concentration depressing maximum agonist response by 50%, noncompetitive): 4.3; nature of interaction with isoprenaline (β-adrenoreceptor; adrenoreceptor antagonism test): noncompetitive in nature |
| 28.8 nM | COc1cc2c(cc1OCCNCC(O)COc1ccccc1C)CCCC[S+]2[O-] (stereo not shown) [Example 8, 1-[2-(8-Methoxy-2,3,4,5-tetrahydro-1-benzothiepin-7-oxy)ethylamino]-3-(2-methylphenoxy)propan-2-ol S-oxide oxalate salt] | – | – | – | – | -43% | -161% | times less active than (±)-propranolol (β-adrenoreceptor): 1.5 times |
| – | CC(C)NCC(O)COc1cccc2ccccc12 (racemic) [(±)-Propranolol] | – | – | +11% | +38% | – | – | effect on heart rate (DOCA hypertensive rats [3]): decreased heart rate; effect on blood pressure (DOCA hypertensive rats [1]; 50 mg/kg, p.o.): long-lasting increase in blood pressure; maximal percent changes in MABP (DOCA hypertensive rats [1]; oral dose 5 mg/kg, fall, group mean): -5%; Summation of percent changes (DOCA hypertensive rats [1]; oral dose 5 mg/kg, fall, sum of 1, 2, 3 and 5 hours): -6%; maximal percent changes in MABP (DOCA hypertensive rats [1]; oral dose 5 mg/kg, increase, group mean): +10%; Summation of percent changes (DOCA hypertensive rats [1]; oral dose 5 mg/kg, increase, sum of 1, 2, 3 and 5 hours): +15%; effect on mean blood pressure (DOCA hypertensive rats [1]; oral, 5.0 mg/kg): small increase in mean blood pressure followed by a non-significant transient fall |
| 29.5 nM | COc1cc([S+](C)[O-])c(OC)cc1OCCNCC(O)COc1ccccc1C.O=C(O)C(=O)O (stereo not shown) [Example 10, 1-[2-(2,5-Dimethoxy-4-methylsulphinylphenoxy)ethylamino]-3-(2-methylphenoxy)propan-2-ol oxalate salt] | – | – | – | – | -36% | -131% | times less active than (±)-propranolol (β-adrenoreceptor): 1.5 times |
